Data taken from the supplement of paper PMC10307832.

Assays:
Assay in all cases: relative viability (nuclei count vs DMSO), 5 days (fraction); higher = more cells survive
[1] = compound: C/C(=N\NC(=S)N1CCC1)/C2=CC=CC=N2 + COc1cccc2cc(-c3nc([C@H]4CC[C@H](C(=O)O)CC4)n4ncnc(N)c34)[nH]c12 [OSI-027] (partner 0.5 µM)
In short: (§1)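 Relative viability equals treated-well nuclei counts divided by vehicle-well nuclei counts. Counts came from 4× images of lung cancer cell lines grown in 1536-well plates for 5 days after pin-tool dosing on the day after seeding. Dosing used one drug alone or a fixed anchor-drug dose plus five library-drug doses (not always all listed) in √10 steps, and values are medians of duplicate plates.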

[2] = compound: C/C(=N\NC(=S)N1CCC1)/C2=CC=CC=N2 + CS(=O)(=O)CCNCc1ccc(-c2ccc3ncnc(Nc4ccc(OCc5cccc(F)c5)c(Cl)c4)c3c2)o1 [Lapatinib] (partner 2 µM)
In short: as §1

[3] = compound: C/C(=N\NC(=S)N1CCC1)/C2=CC=CC=N2 + C[C@]1(O)C[C@@H](c2nc(-c3ccc4ccc(-c5ccccc5)nc4c3)c3c(N)nccn32)C1 [Linsitinib] (partner 1 µM)
In short: as §1

[4] = compound: C/C(=N\NC(=S)N1CCC1)/C2=CC=CC=N2 + Cc1nc(NC(=O)N2CCC[C@H]2C(N)=O)sc1-c1ccnc(C(C)(C)C(F)(F)F)c1 [Alpelisib] (partner 2 µM)
In short: as §1

Cell Line	relative viability ([1]; first compound 0.05 µM)	relative viability ([1]; first compound 0.1581 µM)	relative viability ([1]; first compound 0.5 µM)	relative viability ([1]; first compound 1.581 µM)	relative viability ([1]; first compound 5 µM)	relative viability ([2]; first compound 0.05 µM)	relative viability ([2]; first compound 0.1581 µM)	relative viability ([2]; first compound 0.5 µM)	relative viability ([2]; first compound 1.581 µM)	relative viability ([2]; first compound 5 µM)	relative viability ([3]; first compound 0.05 µM)	relative viability ([3]; first compound 0.1581 µM)	relative viability ([3]; first compound 0.5 µM)	relative viability ([3]; first compound 1.581 µM)	relative viability ([3]; first compound 5 µM)	relative viability ([4]; first compound 0.05 µM)	relative viability ([4]; first compound 0.1581 µM)	relative viability ([4]; first compound 0.5 µM)	relative viability ([4]; first compound 1.581 µM)	relative viability ([4]; first compound 5 µM)
NCI-H1666	0.396	0.41	0.383	0.354	0.358	0.229	0.27	0.273	0.198	0.228	0.213	0.244	0.231	0.22	0.231	0.198	0.208	0.23	0.212	0.224
NCI-H1734	0.167	0.163	0.179	0.116	0.118	0.162	0.141	0.15	0.115	0.12	0.141	0.183	0.16	0.142	0.131	0.169	0.185	0.147	0.135	0.151
NCI-H1755	0.292	0.288	0.287	0.273	0.228	0.249	0.173	0.195	0.205	0.191	0.528	0.959	0.194	0.22	0.215	0.471	0.834	0.172	0.201	0.187
NCI-H1792	0.417	0.301	0.25	0.248	0.205	0.371	0.38	0.179	0.193	0.104	0.366	0.261	0.119	0.115	0.066	0.457	0.373	0.153	0.114	0.085
NCI-H1793	0.128	0.176	0.159	0.153	0.142	0.192	0.169	0.165	0.146	0.197	0.22	0.233	0.132	0.142	0.167	0.245	0.179	0.169	0.168	0.191
NCI-H1915	0.184	0.165	0.176	0.179	0.163	0.195	0.182	0.157	0.136	0.133	0.523	1.03	0.228	0.176	0.153	0.501	1.08	0.174	0.157	0.143
NCI-H1944	0.197	0.192	0.168	0.133	0.12	0.194	0.317	0.207	0.144	0.163	0.875	1.06	0.6	0.259	0.196	0.669	0.794	0.307	0.191	0.133
NCI-H1975	0.137	0.119	0.116	0.105	0.11	0.132	0.151	0.147	0.13	0.15	0.157	0.151	0.145	0.158	0.163	0.137	0.137	0.123	0.136	0.154
